# Measured values from patent US20250031744A1, “Methods and Compositions for Managing Blood Glucose Levels Using Rare Sugars” (DiaVita Therapeutics LLC, priority 2023, published 2025).
# Legend:
# [1] = test system: subjects; experiment: Experimental treatment with tagatose alone, gastrointestinal side effects; format: in vivo, human; details: no co-administration of allulose or ginger; treatment stopped after a couple of days
# Source text: Both tagatose and allulose can give rise to significant gastrointestinal side effects (e.g., bloating, flatulence, abdominal pain, diarrhea). In our personal experience and anecdotally, the GI side effects are more significant for tagatose than allulose.
# [2] = test system: subject with type 1 diabetes; experiment: Pilot open-label observational study with continuous glucose monitoring, treatment three times per day before meals (Example 1); format: in vivo, human; details: 7.5 g tagatose prior to meals without allulose or ginger
# Method: Example 1. A pilot, open-label observational study was conducted on a subject with type 1 diabetes. The subject used a Dexcom® continuous glucose monitoring system which recorded blood sugar levels every five minutes. The subject first completed an extensive control period for roughly two months to obtain background blood sugar levels.
# Subsequently, the subject was administered numerous treatment protocols separated by washout periods of at least 7 days (typically two weeks). […] The subject completed treatments with the following active ingredients: (i) Experimental Treatment 1: tagatose plus allulose plus ginger, (ii) Experimental Treatment 2: tagatose plus ginger, (iii) Experimental Treatment 3: allulose plus ginger, and (iv) Experimental Treatment 4: a second treatment course comprising tagatose plus allulose plus ginger. […]
# Blood sugar levels were recorded every five minutes using the continuous glucose monitoring system. Primary endpoints were (i) average blood sugar level over the course of treatment, (ii) number of five minute periods with blood sugar level over 180 mg/dL (“time with high blood sugar”) and (iii) “hyperglycemia index”, calculated as the fraction of time with blood sugar level over 250 mg/dL multiplied by the average magnitude of the these hyperglycemic periods (defined as the difference in mg/dL between the recorded blood sugar level and 250). […]
compound,measurement,setting,value
O=C(CO)[C@@H](O)[C@@H](O)[C@H](O)CO [tagatose],GI side effects of tagatose alone,[1],unpleasant GI side effects reported by a majority of subjects
same,reason treatment was not completed,[2],GI discomfort
